# US7829575B2, “Methods for treating androgen receptor related disorders” (University of Cincinnati, priority 2006, dated 2010)
# Like-named read-outs stand apart in the source and are kept apart here.
# Experiments:
# LNCaP cells [1] = assay: Cellular PSA and AR protein, western blotting; assay type: cell-based; details: 24 hr
# Experimental: In FIG. 6, cellular PSA and AR are analyzed by western blotting androgen-starved LNCaP cells.
# [2] = test system: LAPC-4, 22Rv1, PC-3, DU-145, PWE1-NB14, PWE1-NB26, PC-3AR cells; assay: hsp70 expression in other prostate cancer cell lines, western blotting; assay type: cell-based
# Experimental: Downregulation of hsp70 expression by DL3 is AR-dependent. Thus, the effects of DL3 on hsp70 expression are further investigated in several other prostate cancer cell lines, including LAPC-4 (wildtype AR), 22Rv1 (mutant AR), and AR-negative cell lines PC-3, DU-145, PWE1-NB14 (ATCC), and PWE1-NB26 (ATCC). […] In FIG. 10, LAPC-4 (in SMEM) and all other (in CMEM) cells are treated for 24 hr and analyzed by western blotting. LNCaP cells are transfected for 24 hr with hsp70 or its control vector, then treated for 24 hr. Thus, the above observation is further validated in PC-3 cells stably transfected with wildtype AR (PC-3AR). […] On the other hand, overexpression of hsp70 in LNCaP cells elevates endogenous AR protein levels (FIG. 10, panel C, right). […] Thus, the downregulation of hsp70 in prostate cancer cells by DL3 is in an AR-dependent event.
# [3] = test system: LNCaP cells (mutant AR, H877A); assay: LNCaP cell growth, MTT staining; assay type: cell-based; details: for inhibition at 10 µM: Homo sapiens, LNCaP, 96 h
# Excerpt: (§1) Viable cells are stained with MTT (3-(4,5-dimethylthiazol-2-yl)-2,5-diphenyltetrazolium bromide). *, **, and *** designate p<0.05, <0.01, and 0.001, respectively, compared with controls.
# LNCaP cells [4] = assay: Cell cycle distribution and apoptosis, flow cytometry (propidium staining) and western blotting; assay type: cell-based
# Experimental: To further appreciate the effects of DL3 on cell growth, cell cycle distribution is determined using the flow cytometry analysis. After incubation of LNCaP cells for 24 hr in SMEM, the majority of cells are in the G1 phase of cell cycle. […] The cell cycle distribution is examined by the propidium staining method. […] Thus, DL3 induces GI arrest of prostate cancer cells in short term culture.
# LNCaP cells [5] = assay: PSA gene transcription, real-time PCR-based nuclear run-on; details: 20 μM, 16 hr
# LNCaP-Nilut-R cells = assay: Growth of Nilut-refractory LNCaP cells, MTT; assay type: cell-based; details: 10 μM, 4 days, MTT (FIG. 2F)
# Excerpt: as §1
# LNCaP-Flut-R cells = assay: Growth of Flut-refractory LNCaP cells, MTT; assay type: cell-based; details: 10 μM, 4 days, MTT (FIG. 2F)
# Excerpt: as §1
# LNCaP cells [6] = assay: Expression of AR-regulated genes, quantitative RT-PCR (Table 1); assay type: cell-based; details: data not shown
# LNCaP cells [7] = assay: PSA secretion, ELISA of culture supernatant; assay type: cell-based
# Experimental: PSA in the culture supernatant is determined by using an enzyme-linked immunosorbent assay (ELISA) kit. PSA levels are normalized by cell density.
# AR = AR nuclear localization, immunostaining; assay type: cell-based; details: PC-3AR and LNCaP cells, SMEM, 20 μM, with or without 1 nM DHT, 2 h
# Excerpt: AR nuclear translocation is a necessary step for AR action. […] AR in the cells were stained with an antibody to AR and detected with Texas Red-labeled secondary antibody. […] AR is translocated to the nuclei upon treatment with DHT. […] Thus, DL3 binds to AR.
# 22Rv1 cells = assay: PSA mRNA expression, real-time RT-PCR; assay type: cell-based; details: CMEM, 24 hr, dose response (FIG. 7A)
# Experimental: In FIG. 7 LNCaP or 22Rv1 cells (A) are treated for 24 hr with DL3 and total RNA is extracted and analyzed by real-time RT-PCR. […] PSA mRNA in LNCaP cells is approximately 20 fold higher than that in 22Rv1 cells (FIG. 7A).
# AR-AF1 (LBD deleted) = assay: PSA promoter luciferase reporter in PC-3 cells co-transfected with AR-AF1; details: 20 μM, 24 hr
# LNCaP cells [8] = assay: AR protein stability and hsp70/hsp90 expression, western blotting; assay type: cell-based
# Experimental: Cell lysates are prepared and analyzed by western blotting. […] To further determine how DL3 downregulates AR, LNCaP cells are incubated for 24 hr with DL3 in the absence or presence of proteasome inhibitor MG132.
# Hsp70 and hsp90 are key molecular chaperones in cells. Along with several co-chaperones, hsp70 and hsp90 play critical roles in folding and assembling AR to a high-affinity ligand binding conformation and in regulating AR activation that occurs following hormone binding. Therefore, the possibility of whether the downregulation of AR protein by DL3 is mediated by its effects on hsp70 or hsp90 expression is investigated.
# Thus, the effects of DL3 on hsp70 expression are further investigated in several other prostate cancer cell lines, including LAPC-4 (wildtype AR), 22Rv1 (mutant AR), and AR-negative cell lines PC-3, DU-145, PWE1-NB14 (ATCC), and PWE1-NB26 (ATCC). […] In FIG. 10, LAPC-4 (in SMEM) and all other (in CMEM) cells are treated for 24 hr and analyzed by western blotting. LNCaP cells are transfected for 24 hr with hsp70 or its control vector, then treated for 24 hr.
# [9] = 20 μM DL3, time course to 48 hr (FIG. 9A)
smiles,measurement,setting,value
"CC(C)(C)c1ccc(OCCSc2nc(=O)cc(N)[nH]2)cc1 [DL3, 6-amino-2-(2-4-tert-butyl-phenoxy)-ethylsulfanyl-1H-pyrimidin-4-one]",expression of AR protein,LNCaP cells [1]; 5 and 10 μM,not significantly altered
same,expression of AR protein,LNCaP cells [1]; 20 and 40 μM,reduced
same,DHT-induced PSA protein expression,"LNCaP cells [1]; SMEM, Flut, Nilut, Bical at 20 μM",dose-dependently reduced
same,downregulation of hsp70 expression across AR-positive and AR-negative cell lines,"[2]; LAPC-4, 22Rv1 vs AR-negative PC-3, DU-145, PWE1-NB14, PWE1-NB26, 24 hr",found in only the cells expressing AR
same,hsp70 expression in PC-3AR cells,[2]; PC-3 stably transfected with wildtype AR,downregulates hsp70 expression
same,concentration at which inhibition of DHT-stimulated growth reaches a plateau,"[3]; 1 nM DHT, 4 days",greater than 10 μM
same,effect on DHT-stimulated growth of LNCaP cells,"[3]; 1 nM DHT, SMEM, 4 days, dose response",inhibits DHT-stimulated growth
same,growth of parental LNCaP cells,"[3]; 10 μM, 4 days, MTT (FIG. 2F)",significantly inhibits growth
same,"additive effect on growth of DL3 with Flut, Nilut or Bical","[3]; CMEM, 4 days, 5 μM DL3 and 10 μM of Flut, Nilut, or Bical",No significant additive effect
same,inhibition at 10 µM,[3]; read-out: inhibition of growth of LNCaP cells in the absence of DHT,27%
same,inhibition at 10 µM,[3]; read-out: inhibition of growth of LNCaP cells in the presence of DHT,82%
same,growth of LNCaP cells in the absence of DHT,"[3]; no DHT, dose response",inhibits growth
same,increase of the portion of cells in G1 phase of cell cycle,"LNCaP cells [4]; 24 hr, regardless of presence or absence of DHT",15%
same,induction of apoptosis,"LNCaP cells [4]; 24 hr, DL3 at 20 μM",does not induce apoptosis
same,survivin expression and caspase 3 cleavage (western blotting),LNCaP cells [4]; data not shown,alter neither survivin expression nor caspase 3 cleavage
same,DHT-induced PSA mRNA transcription activity of nuclear extracts,LNCaP cells [5]; 1 nM DHT,significantly reduced
same,basal PSA mRNA transcription activity of nuclear extracts,LNCaP cells [5],significantly reduced
same,growth of LNCaP-Nilut-R cells,LNCaP-Nilut-R cells,significantly inhibits growth
same,growth of LNCaP-Flut-R cells,LNCaP-Flut-R cells,significantly inhibits growth
same,PSMA expression at the protein level,LNCaP cells [6],Enhancement of PSMA expression
same,PSA production in parental LNCaP cells,"LNCaP cells [7]; 1 nM DHT, 10 μM, 48 hr (FIG. 5D)",inhibits PSA production
same,reduction of DHT-induced production of PSA,"LNCaP cells [7]; 5 μM, 48 hr",approximately 50%
same,PSA production under androgen-free conditions,"LNCaP cells [7]; 20 μM, no DHT, 48 hr",does not induce PSA production
same,inhibition at 20 µM,"LNCaP cells [7]; Homo sapiens, LNCaP, 48 h, read-out: inhibition of DHT-induced PSA production",~90%
same,"inhibitory effects on DHT-induced PSA production, dose response",LNCaP cells [7]; various concentrations of DL3 and DHT (FIG. 5B),dose-dependent
same,PSA production stimulated by Nilut,LNCaP cells [7]; various concentrations of DL3 and Nilut (FIG. 5C),blocked
same,nuclear localization of AR,AR,partially induce and enhance DHT-induced nuclear localization of AR
same,expression of PSA mRNA,22Rv1 cells,inhibits the expression of PSA mRNA
same,activation of PSA promoter activity by AR-AF1,AR-AF1 (LBD deleted),does not inhibit
same,time after exposure at which AR downregulation can be observed,LNCaP cells [8]; 20 μM,8 h
same,time after treatment at which reduction of hsp70 starts,LNCaP cells [8]; 20 μM DL3,4 h
same,expression of hsp70,LNCaP cells [8]; [9],reduced
same,expression of hsp90,LNCaP cells [8]; [9],not
same,partial reversal by DHT of the CHX-diminished AR expression,"LNCaP cells [8]; 24 hr with DHT, DL3 and CHX (FIG. 9B, lane 7 vs. lane 6)",also blocked
same,AR downregulation by DL3 under overexpression of hsp70,"LNCaP cells [8]; LNCaP cells transfected 24 hr with hsp70, then treated 24 hr",not able to protect AR downregulation
same,elevation of AR and PSA expression by DHT,"LNCaP cells [8]; SMEM, 24 hr (FIG. 9B, lane 4 vs. lane 3)",blocked
same,AR protein levels,LNCaP cells [8]; dose-dependent,downregulates AR protein levels
